Reference: patent US6509377B1, “Use of a 2-hydroxy-4-trifluoromethylbenzoic acid derivatives as inhibitors of the activation of the nuclear transcription factor NF-κB” (J. Uriach & Cia, S.A., priority 1999, dated 2003)

What was measured:
[1] = tested on: COX-2; assay: COX-2 expression induced by LPS in human PBMC (immunoblot); assay type: cell-based; conditions: LPS 10 μg/ml, 19 hours, 0.1-5 mM
Experimental: Mononuclear cells (PBMC) were obtained from blood of healthy donors from the Hospital de Sant Pau, (Barcelona) who had not taken any antiinflammatory drug during a period of not less than 2 weeks before blood extraction. Starting from a volume of about 80 ml of heparinized human blood (10 U/ml), this was diluted (1:1) with PBS (pH 7.4; Dulbecco) without calcium, magnesium nor sodium bicarbonate. 15 ml of Ficoll solution (d=1.077 at 20° C.; Biochrom KG) were placed in 50-ml Falcon tubes. To this solution a volume of about 25 ml per tube of the blood previously diluted with PBS was carefully added and the tubes were then centrifuged at 1,200 g for 20 minutes. Mononudear cells concentrate on a whitish interphase between the plasma and the Ficoll solution. This interphase was collected with a Pasteur pipette and was diluted 1:1 with PBS. It was then centrifuged at 300 g, 10 min. The resulting pellet was resuspended in 50 ml PBS and was again centrifuged at 200 g for 10 min in order to remove platelet contamination. Finally, the resulting pellet was resuspended in 20 ml RPMI-1640 culture medium (GibcoBRL) supplemented with 10% fetal calf serum.
Cells were diluted at a concentration of 2.5 million/ml with RPMI medium containing 10% fetal calf serum and were incubated (37° C., 5% CO2) 19 hours in 6-well plates (2 ml/well, 5 million PBMC). […]

[2] = tested on: NF-κB; assay: Activation of NF-κB induced by immune complexes in rat peritoneal macrophages (EMSA); assay type: cell-based; conditions: 4 mM, 100 μg/ml IgG/ovalbumin, 2 hours
Experimental: Rat peritoneal cavity cells were extracted and resuspended in DMEM culture medium in the absence of serum previously supplemented with 100 U/ml penicillin, 100 μg/ml streptomycin, 50 μg/ml gentamycin, 2 mM glutamine and 0.5 mM L-arginine. Cells were incubated for 2 hours in culture plates at 37° C. and those which had not adhered to the plates were removed by washing three times with the same fresh medium. More than 95% of the adherent cells were macrophages, as assessed by their ability to engulf zymosan particles and nonspecific esterase staining. Macrophages were kept at 37° C. under a 5% CO2 atmosphere and two hours later non-adherent cells were removed and the peritoneal macrophages adhered to the plates were incubated with 100 μg/ml IgG/ovalbumin immune complexes prepared from; rabbit antiserum for 2 hours in the presence or absence (vehicle) of triflusal or HTB (4 mM, both).
After incubation, macrophages were washed twice with PBS and the degree of activation (binding to DNA) of the transcription factor NF-κB was determined using the EMSA assay, described in detail in Example 1.

SMILES: O=C(O)c1ccc(C(F)(F)F)cc1O [HTB, 2-hydroxy-4-trifluoromethylbenzoic acid]
- inhibition of COX-2 expression [1]: concentration-dependently inhibit
- inhibition of the activation of NF-κB induced by immune complexes [2]: markedly inhibit

SMILES: CC(=O)Oc1cc(C(F)(F)F)ccc1C(=O)O [triflusal, 2-Acetyloxy-4-trifluoromethylbenzoic acid, reference compound]
- inhibition of COX-2 expression [1]: concentration-dependently inhibit
- inhibition of the activation of NF-κB induced by immune complexes [2]: markedly inhibit
